Patent publication US9511073B2, “Aromatic amides and uses thereof” (TAXIS Pharmaceuticals, Inc., priority 2011, dated 2016)
In brackets after ≈: the same amount, converted by molar mass.

What follows are compounds tested on Staphylococcus aureus (Isolate ID ATCC 29213) (assay: Bacterial assay: MIC by broth microdilution or agar dilution (CLSI), S. aureus ATCC 29213). Settings: Staphylococcus aureus, ATCC29213, read-out: S. aureus MIC (μg/mL) Activity Range, S. aureus (ATCC29213).
Format: cell-based
Outline: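 MICs by CLSI broth microdilution or agar dilution against S. aureus ATCC 29213 and its FtsZ-G196A mutant. Values reported as ranges: A ≤0.25 μg/mL, B >0.25–1.0, C >1.0–16, D >16 μg/mL.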
Compound NC(=O)c1c(F)ccc(OC(CO)c2nc(C3CCOCC3)co2)c1F (centres unmarked) [Compound 182, 2,6-difluoro-3-(2-hydroxy-1-(4-(tetrahydro-2H-pyran-4-yl)oxazol-2-yl)ethoxy)benzamide] has an MIC of over 16 µg/mL. Compound NC(=O)c1c(F)ccc(OC(CO)c2nc(-c3ccc(Cl)cc3)co2)c1F (centres unmarked) [Compound 10, 3-(1-(4-(4-chlorophenyl)oxazol-2-yl)-2-hydroxyethoxy)-2,6-difluorobenzamide] has an MIC of over 16 µg/mL. For NC(=O)c1c(F)ccc(OC(CO)c2nc(Br)c(-c3ccc(C(F)(F)F)cc3)o2)c1F (centres unmarked) [Compound 149, 3-(1-(4-bromo-5-(4-(trifluoromethyl)phenyl)oxazol-2-yl)-2-hydroxyethoxy)-2,6-difluorobenzamide], the MIC was 1 to 16 µg/mL (≈ 1.97 to 31.5 µM). For CC(Oc1ccc(F)c(C(N)=O)c1F)c1nc(-c2ccc(C(F)(F)F)cc2)c(Cl)o1 (centres unmarked) [Compound 32], the MIC was 0.25 to 1 µg/mL (≈ 0.56 to 2.24 µM). Work on CN(CC(=O)OCC(Oc1ccc(F)c(C(N)=O)c1F)c1nc(-c2ccc(C(F)(F)F)cc2)c(Br)o1)C(=O)OC(C)(C)C (centres unmarked) [Compound 61, 2-(5-bromo-4-(4-(trifluoromethyl)phenyl)oxazol-2-yl)-2-(3-carbamoyl-2,4-difluorophenoxy)ethyl 2-((tert-butoxycarbonyl)(methyl)amino)acetate] yielded an MIC of 0.25 to 1 µg/mL (≈ 0.369 to 1.47 µM). Compound COc1ccc(CCc2csc(C(CO)Oc3ccc(F)c(C(N)=O)c3F)n2)cc1 (centres unmarked) [Compound 262, 2,6-difluoro-3-(2-hydroxy-1-(4-(4-methoxyphenethyl)thiazol-2-yl)ethoxy)benzamide] has an MIC of 1 to 16 µg/mL (≈ 2.3 to 36.8 µM). NC(=O)c1c(F)ccc(OC(CCCO)c2nc(-c3ccc(C(F)(F)F)cc3)c(Br)o2)c1F (centres unmarked) [Compound 90, 3-(1-(5-bromo-4-(4-(trifluoromethyl)phenyl)oxazol-2-yl)-4-hydroxybutoxy)-2,6-difluorobenzamide] was tested, and the MIC was 0.25 to 1 µg/mL (≈ 0.467 to 1.87 µM). In the case of COc1ccc(-c2csc(C(CO)Oc3ccc(F)c(C(N)=O)c3F)n2)cc1 (centres unmarked) [Compound 259, 2,6-difluoro-3-(2-hydroxy-1-(4-(4-methoxyphenyl)thiazol-2-yl)ethoxy)benzamide], the MIC is reported as 1 to 16 µg/mL (≈ 2.46 to 39.4 µM). Compound Cc1cc(CNC(=O)OCC(Oc2ccc(F)c(C(N)=O)c2F)c2nc(-c3ccc(C(F)(F)F)cc3)c(Br)o2)n(C)n1 (centres unmarked) [Compound 212, 2-(5-bromo-4-(4-(trifluoromethyl)phenyl)oxazol-2-yl)-2-(3-carbamoyl-2,4-difluorophenoxy)ethyl ((1,3-dimethyl-1H-pyrazol-5-yl)methyl)carbamate] has an MIC of 0.25 to 1 µg/mL (≈ 0.38 to 1.52 µM). For CCCc1oc(C(C)Oc2ccc(F)c(C(N)=O)c2F)nc1-c1ccc(Cl)cc1 (centres unmarked) [Compound 19], the MIC was 0.25 to 1 µg/mL (≈ 0.594 to 2.38 µM). CC(=O)OCC(Oc1ccc(F)c(C(N)=O)c1F)c1nc(-c2ccc(S(C)(=O)=O)cc2)c(Br)o1 (centres unmarked) [Compound 144, 2-(5-bromo-4-(4-(methylsulfonyl)phenyl)oxazol-2-yl)-2-(3-carbamoyl-2,4-difluorophenoxy)ethyl acetate] showed an MIC of over 16 µg/mL. NC(=O)c1c(F)ccc(OC(C(=O)O)c2coc(-c3ccc(C(F)(F)F)cc3)n2)c1F (centres unmarked) [Compound 132, 2-(3-carbamoyl-2,4-difluorophenoxy)-2-(2-(4-(trifluoromethyl)phenyl)oxazol-4-yl)acetic acid] gave an MIC of over 16 µg/mL. Work on NC(=O)c1c(F)ccc(OC(CO)c2coc(-c3ccc(C(F)(F)F)cc3)n2)c1F (centres unmarked) [Compound 136, 2,6-difluoro-3-(2-hydroxy-1-(2-(4-(trifluoromethyl)phenyl)oxazol-4-yl)ethoxy)benzamide] yielded an MIC of 1 to 16 µg/mL (≈ 2.33 to 37.4 µM). For Cc1ccc(CNC(=O)OCC(Oc2ccc(F)c(C(N)=O)c2F)c2nc(-c3ccc(C(F)(F)F)cc3)c(Br)o2)cn1 (centres unmarked) [Compound 214, 2-(5-bromo-4-(4-(trifluoromethyl)phenyl)oxazol-2-yl)-2-(3-carbamoyl-2,4-difluorophenoxy)ethyl ((6-methylpyridin-3-yl)methyl)carbamate], the MIC was 0.25 to 1 µg/mL (≈ 0.381 to 1.53 µM). With CN1CCN(C(=O)C(Oc2ccc(F)c(C(N)=O)c2F)c2nc(-c3ccc(Cl)cc3)cs2)CC1 (centres unmarked) [Compound 41, 3-(1-(4-(4-chlorophenyl)thiazol-2-yl)-2-(4-methylpiperazin-1-yl)-2-oxoethoxy)-2,6-difluorobenzamide] the MIC was 1 to 16 µg/mL (≈ 1.97 to 31.6 µM). CCCc1oc(C(C)Oc2ccc(F)c(C(N)=O)c2F)nc1-c1ccc(OC(F)(F)F)cc1 (centres unmarked) [Compound 20, 2,6-difluoro-3-(1-(5-propyl-4-(4-(trifluoromethoxy)phenyl)oxazol-2-yl)ethoxy)benzamide] was tested, and the MIC was under 0.25 µg/mL. COCCOCC(=O)NCC(Oc1ccc(F)c(C(N)=O)c1F)c1nc(-c2ccc(C(F)(F)F)cc2)c(Br)o1 (centres unmarked) [Compound 301, 3-(1-(5-bromo-4-(4-(trifluoromethyl)phenyl)oxazol-2-yl)-2-(2-(2-methoxyethoxy)acetamido)ethoxy)-2,6-difluorobenzamide] was tested, and the MIC was 1 to 16 µg/mL (≈ 1.61 to 25.7 µM). CNCCNC(=O)OCC(Oc1ccc(F)c(C(N)=O)c1F)c1nc(-c2ccc(C(F)(F)F)cc2)c(Br)o1 (centres unmarked) [Compound 154, 2-(5-bromo-4-(4-(trifluoromethyl)phenyl)oxazol-2-yl)-2-(3-carbamoyl-2,4-difluorophenoxy)ethyl (2-(methylamino)ethyl)carbamate] was tested, and the MIC was 1 to 16 µg/mL (≈ 1.65 to 26.3 µM). For NC(=O)c1c(F)ccc(OC(COC(=O)CCC(=O)O)c2nc(-c3ccc(C(F)(F)F)cc3)c(Br)o2)c1F (centres unmarked) [Compound 74, 4-(2-(5-bromo-4-(4-(trifluoromethyl)phenyl)oxazol-2-yl)-2-(3-carbamoyl-2,4-difluorophenoxy)ethoxy)-4-oxobutanoic acid], the MIC was 1 to 16 µg/mL (≈ 1.65 to 26.3 µM). NC(=O)c1c(F)ccc(OC(CNC(=O)CCC(=O)O)c2nc(-c3ccc(C(F)(F)F)cc3)c(Br)o2)c1F (centres unmarked) [Compound 302, 4-((2-(5-bromo-4-(4-(trifluoromethyl)phenyl)oxazol-2-yl)-2-(3-carbamoyl-2,4-difluorophenoxy)ethyl)amino)-4-oxobutanoic acid] showed an MIC of 1 to 16 µg/mL (≈ 1.65 to 26.4 µM). For CN(C)C(=O)OCC(Oc1ccc(F)c(C(N)=O)c1F)c1nc(-c2ccc(C(F)(F)F)cc2)c(Br)o1 (centres unmarked) [Compound 107, 2-(5-bromo-4-(4-(trifluoromethyl)phenyl)oxazol-2-yl)-2-(3-carbamoyl-2,4-difluorophenoxy)ethyl dimethylcarbamate], the MIC was under 0.25 µg/mL. For CC(=O)OCCCC(Oc1ccc(F)c(C(N)=O)c1F)c1nc(-c2ccc(C(F)(F)F)cc2)c(Br)o1 (centres unmarked) [Compound 89, 4-(5-bromo-4-(4-(trifluoromethyl)phenyl)oxazol-2-yl)-4-(3-carbamoyl-2,4-difluorophenoxy)butyl acetate], the MIC was 0.25 to 1 µg/mL. NC(=O)c1c(F)ccc(OC(C(=O)O)c2nc(-c3ccc(Cl)cc3)c(Cl)o2)c1F (centres unmarked) [Compound 53, 2-(3-carbamoyl-2,4-difluorophenoxy)-2-(5-chloro-4-(4-chlorophenyl)oxazol-2-yl)acetic acid] gave an MIC of over 16 µg/mL. With CC(=O)NNC(=O)CC(Oc1ccc(F)c(C(N)=O)c1F)c1nc(-c2ccc(C(F)(F)F)cc2)c(Br)o1 (centres unmarked) [Compound 100, 3-(3-(2-acetylhydrazinyl)-1-(5-bromo-4-(4-(trifluoromethyl)phenyl)oxazol-2-yl)-3-oxopropoxy)-2,6-difluorobenzamide] the MIC was 1 to 16 µg/mL (≈ 1.69 to 27.1 µM). CN(C)C(=O)c1ccc(-c2nc(C(CO)Oc3ccc(F)c(C(N)=O)c3F)oc2Br)cc1 (centres unmarked) [Compound 252, 4-(5-bromo-2-(1-(3-carbamoyl-2,4-difluorophenoxy)-2-hydroxyethyl)oxazol-4-yl)-N,N-dimethylbenzamide] showed an MIC of over 16 µg/mL. Compound CCCc1oc(C(CC)Oc2ccc(F)c(C(N)=O)c2F)nc1-c1ccc(Cl)cc1 (centres unmarked) [Compound 26, 3-(1-(4-(4-chlorophenyl)-5-propyloxazol-2-yl)propoxy)-2,6-difluorobenzamide] has an MIC of 0.25 to 1 µg/mL (≈ 0.575 to 2.3 µM). NCCC(Oc1ccc(F)c(C(N)=O)c1F)c1nc(-c2ccc(C(F)(F)F)cc2)c(Br)o1 (centres unmarked) [Compound 95, 3-(3-amino-1-(5-bromo-4-(4-(trifluoromethyl)phenyl)oxazol-2-yl)propoxy)-2,6-difluorobenzamide] showed an MIC of over 16 µg/mL. Compound COCCOCC(Oc1ccc(F)c(C(N)=O)c1F)c1nc(-c2ccc(C(F)(F)F)cc2)c(Br)o1 (centres unmarked) [Compound 155, 3-(1-(5-bromo-4-(4-(trifluoromethyl)phenyl)oxazol-2-yl)-2-(2-methoxyethoxy)ethoxy)-2,6-difluorobenzamide] has an MIC of 0.25 to 1 µg/mL (≈ 0.442 to 1.77 µM). Compound C=CCOP(=O)(O)OCC(Oc1ccc(F)c(C(N)=O)c1F)c1nc(-c2ccc(C(F)(F)F)cc2)c(Br)o1 (centres unmarked) [Compound 75, allyl (2-(5-bromo-4-(4-(trifluoromethyl)phenyl)oxazol-2-yl)-2-(3-carbamoyl-2,4-difluorophenoxy)ethyl) hydrogen phosphate] has an MIC of over 16 µg/mL. For Cc1cc(CNC(=O)OCC(Oc2ccc(F)c(C(N)=O)c2F)c2nc(-c3ccc(C(F)(F)F)cc3)c(Br)o2)ccn1 (centres unmarked) [Compound 200, 2-(5-bromo-4-(4-(trifluoromethyl)phenyl)oxazol-2-yl)-2-(3-carbamoyl-2,4-difluorophenoxy)ethyl ((2-methylpyridin-4-yl)methyl)carbamate], the MIC was 0.25 to 1 µg/mL (≈ 0.381 to 1.53 µM). For NC(=O)c1cccc(OC(CO)c2nc(-c3ccc(C(F)(F)F)cc3)c(Br)o2)c1F (centres unmarked) [Compound 159, 3-(1-(5-bromo-4-(4-(trifluoromethyl)phenyl)oxazol-2-yl)-2-hydroxyethoxy)-2-fluorobenzamide], the MIC was under 0.25 µg/mL. For COc1ccc(-c2nc(C(CO)Oc3ccc(F)c(C(N)=O)c3F)oc2Br)nc1 (centres unmarked) [Compound 238, 3-(1-(5-bromo-4-(5-methoxypyridin-2-yl)oxazol-2-yl)-2-hydroxyethoxy)-2,6-difluorobenzamide], the MIC was over 16 µg/mL. Work on CCCc1oc(C(C)Oc2ccc(F)c(C(N)=O)c2F)nc1-c1ccc(OC)cc1 (centres unmarked) [Compound 15] yielded an MIC of 0.25 to 1 µg/mL (≈ 0.6 to 2.4 µM). CC(=O)NCC(Oc1ccc(F)c(C(N)=O)c1F)c1nc(-c2ccc(C(F)(F)F)cc2)co1 (centres unmarked) [Compound 282, 3-(2-acetamido-1-(4-(4-(trifluoromethyl)phenyl)oxazol-2-yl)ethoxy)-2,6-difluorobenzamide] gave an MIC of over 16 µg/mL. In the case of Cc1nnc(CNC(=O)OCC(Oc2ccc(F)c(C(N)=O)c2F)c2nc(-c3ccc(C(F)(F)F)cc3)c(Br)o2)o1 (centres unmarked) [Compound 172, 2-(5-bromo-4-(4-(trifluoromethyl)phenyl)oxazol-2-yl)-2-(3-carbamoyl-2,4-difluorophenoxy)ethyl ((5-methyl-1,3,4-oxadiazol-2-yl)methyl)carbamate], the MIC is reported as 0.25 to 1 µg/mL (≈ 0.387 to 1.55 µM).
